These results are taken from ChEMBL document CHEMBL1201862, “PubChem BioAssay data set” (2004).

Some test systems named below: SNB-75; SF-539; SK-MEL-2; PC-3; HCC 2998; NCI/ADR-RES; MCF7; SK-MEL-5; HOP-92; Malme-3M; SK-OV-3; BT-549; CCRF-CEM; OVCAR-5; NCI-H460; HCT-15; UACC-62; UO-31; OVCAR-3; HOP-62.
Assay in all cases: NCI anticancer screen, dose series, 48 h

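Tested at 5 concentrations; 48 h exposure; 96-well plates; endpoints linearly interpolated, else capped at highest concentration. At the GI50, growth is halved.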 Activity calls are given as the source filed them. Cut-off read from the data, not from the text of the source: active = GI50 up to about 1.1 µM and inactive = higher. A value given as a limit tells only on which side of the number the result lay.

In the case of `CC1C2(C)OC(=N)C(C#N)(C(c3ccco3)O2)C1(C#N)C#N` (centres undefined), the GI50 in the assay on SNB-75 is 97.3 µM (inactive); with SF-539 it was 19.5 µM (inactive); in the assay with SK-MEL-2, 29.4 µM (inactive); in the assay with PC-3, 36.6 µM (inactive); in the assay with HCC 2998, 26.9 µM (inactive); in the assay with NCI/ADR-RES it was > 100 µM (inactive). Also, the GI50 with MCF7 is 22.4 µM (inactive); in the assay on SK-MEL-5, 14.9 µM (inactive); in the assay with HOP-92, 22.3 µM (inactive); with Malme-3M, 31.2 µM (inactive); with SK-OV-3, > 100 µM (inactive); in the assay on BT-549, 35.2 µM (inactive). For the same compound, the GI50 was 23.6 µM (inactive) with CCRF-CEM; 29.7 µM (inactive) in the assay with OVCAR-5; 19.3 µM (inactive) in the assay with NCI-H460; 12.5 µM in the assay on HCT-15; 17.7 µM (inactive) in the assay with UACC-62; 38.5 µM (inactive) with UO-31. For the same compound, the GI50 with OVCAR-3 is 21.3 µM (inactive).
With `CSC1=NN=C(SC)NN1`, the GI50 in the assay on SF-539 was 0.205 µM (active); with SK-MEL-2, 0.145 µM (active); in the assay with PC-3, 0.166 µM (active); in the assay on HCC 2998, 0.378 µM (active); in the assay on NCI/ADR-RES it was 0.3 µM (active); in the assay on MCF7, 0.201 µM (active). The GI50 in the assay on SK-MEL-5 was 0.182 µM (active); in the assay on HOP-92, 0.173 µM (active); in the assay on Malme-3M, 0.151 µM (active); with HOP-62, 0.201 µM (active); with SK-OV-3, 0.186 µM (active); in the assay with BT-549, 0.151 µM (active). Also, the GI50 with CCRF-CEM is 0.0243 µM (active); in the assay with OVCAR-5 it was 0.179 µM (active); with NCI-H460 it was 0.196 µM (active); with HCT-15, 0.169 µM; in the assay with UACC-62, 0.148 µM (active); in the assay with UO-31 it was 0.188 µM (active). Besides, the GI50 in the assay on OVCAR-3 was 0.185 µM (active).
`O=C(CNc1nccs1)Nn1cnc2ccc(S(=O)(=O)Nc3nccs3)cc2c1=O`: the GI50 in the assay on SNB-75, in the assay on SF-539, with SK-MEL-2, in the assay on PC-3, in the assay with HCC 2998 and in the assay with NCI/ADR-RES was > 100 µM (inactive) each time. Moreover, the GI50 in the assay on MCF7, in the assay on HOP-92, in the assay with Malme-3M, with HOP-62, in the assay with SK-OV-3 and in the assay with BT-549 was > 100 µM (inactive) throughout. The GI50 in the assay with CCRF-CEM is > 100 µM (inactive); in the assay with OVCAR-5 it was > 100 µM (inactive); with NCI-H460, > 100 µM (inactive); in the assay with HCT-15, > 100 µM; with UACC-62 it was > 100 µM (inactive); in the assay on UO-31 it was > 100 µM (inactive). The GI50 in the assay on OVCAR-3 is > 100 µM (inactive).
Regarding `Cc1c(C(=O)O)c2cc3ccccc3cc2c(=O)n1C`, the GI50 in the assay on SNB-75, in the assay on SF-539, in the assay with SK-MEL-2, in the assay with PC-3, in the assay on HCC 2998 and with NCI/ADR-RES was > 10 µM (inactive) each time. In addition, the GI50 in the assay with MCF7, in the assay on HOP-92, in the assay with Malme-3M, with SK-OV-3, with BT-549 and in the assay with OVCAR-5 was > 10 µM (inactive) in each case. Moreover, the GI50 in the assay with NCI-H460 was > 10 µM (inactive); with HCT-15, > 10 µM; with UACC-62, > 10 µM (inactive); with UO-31, > 10 µM (inactive); with OVCAR-3 it was > 10 µM (inactive).
In the case of `S=c1scc(-c2ccc(Cl)cc2)n1OC1CCCC1`, the GI50 is 36.5 µM (inactive) in the assay on SNB-75; 10.8 µM (inactive) with SF-539; 18.3 µM (inactive) in the assay on SK-MEL-2; 29.9 µM (inactive) with PC-3; 23.9 µM (inactive) in the assay on HCC 2998; 23.8 µM (inactive) with NCI/ADR-RES. The GI50 with MCF7 is 27 µM (inactive); in the assay on SK-MEL-5 it was 11.4 µM (inactive); with HOP-92, 21.3 µM (inactive); in the assay with Malme-3M, 56.2 µM (inactive); in the assay with HOP-62, 36.7 µM (inactive); in the assay on SK-OV-3, 36.2 µM (inactive). For the same compound, the GI50 in the assay with BT-549 is 30.2 µM (inactive); with OVCAR-5, 52.2 µM (inactive); in the assay on NCI-H460 it was 25.2 µM (inactive); in the assay on HCT-15, 21.8 µM; in the assay on UACC-62 it was 24.4 µM (inactive); in the assay with UO-31, 40.6 µM (inactive). Also, in the assay with OVCAR-3, the GI50 is 16.7 µM (inactive).
For `CN1Cc2cc3cc4c(cc3nc2N(C)C1)OCCO4`, the GI50 in the assay on SNB-75, in the assay on SF-539, in the assay with SK-MEL-2, in the assay with PC-3, in the assay with HCC 2998 and in the assay on NCI/ADR-RES was > 100 µM (inactive) each time. Besides, the GI50 with MCF7, in the assay on SK-MEL-5, with HOP-92, in the assay with Malme-3M, in the assay with HOP-62 and in the assay with SK-OV-3 was > 100 µM (inactive) throughout. Also, the GI50 in the assay on BT-549 was > 100 µM (inactive); in the assay on CCRF-CEM, > 100 µM (inactive); in the assay with OVCAR-5, > 100 µM (inactive); in the assay with NCI-H460, > 100 µM (inactive); in the assay on HCT-15 it was > 100 µM; in the assay on UACC-62 it was > 100 µM (inactive).
For the compound `COc1ccc(-c2cc3cc(Cl)cc(Cl)c3oc2=O)cc1OC`, the GI50 is 81.7 µM (inactive) in the assay on SF-539; > 100 µM (inactive) in the assay on SK-MEL-2; 46.9 µM (inactive) in the assay with PC-3; 44.7 µM (inactive) in the assay with HCC 2998; 56.9 µM (inactive) in the assay with NCI/ADR-RES; 59.3 µM (inactive) in the assay on MCF7. Further, the GI50 was 28.8 µM (inactive) in the assay with SK-MEL-5; 46.6 µM (inactive) in the assay with HOP-92; 59.8 µM (inactive) in the assay with Malme-3M; 40 µM (inactive) with HOP-62; 74.8 µM (inactive) with SK-OV-3; 57.3 µM (inactive) in the assay with BT-549. The GI50 with CCRF-CEM was > 100 µM (inactive); in the assay on OVCAR-5 it was > 100 µM (inactive); in the assay with NCI-H460 it was 36.7 µM (inactive); in the assay with HCT-15, 48.8 µM; in the assay with UACC-62 it was 63.2 µM (inactive); in the assay with UO-31 it was 58.7 µM (inactive). Further, in the assay with OVCAR-3, the GI50 was 29.4 µM (inactive).
Consider `COc1cc(/C=C2\CC3C4CC[C@H]5C[C@@H](O)CC[C@]5(C)C4CC[C@]3(C)C2=O)cc(OC)c1OC` (some centres undefined), for which the GI50 was 14.4 µM (inactive) in the assay with SNB-75; 22.6 µM (inactive) with SF-539; 14.9 µM (inactive) in the assay on SK-MEL-2; 5.48 µM (inactive) in the assay with PC-3; 7.13 µM (inactive) in the assay with HCC 2998; 16.7 µM (inactive) in the assay with NCI/ADR-RES. Also, the GI50 is 4.25 µM (inactive) in the assay with MCF7; 9.29 µM (inactive) in the assay on SK-MEL-5; 26.5 µM (inactive) in the assay on HOP-92; 19.5 µM (inactive) in the assay on Malme-3M; 13 µM (inactive) in the assay on HOP-62; 11.5 µM (inactive) in the assay with SK-OV-3. Besides, the GI50 with BT-549 is 24.8 µM (inactive); in the assay on CCRF-CEM it was 7.36 µM (inactive); in the assay on OVCAR-5, 27 µM (inactive); with NCI-H460, 10.7 µM (inactive); in the assay with HCT-15, 9.59 µM; in the assay with UACC-62, 17.6 µM (inactive). Further, the GI50 in the assay on UO-31 is 4.08 µM (inactive).
For the compound `CC(=O)O[C@H]1C[C@H]2[C@@H]([C@H](OC(C)=O)C[C@@H]3CC4(CC[C@@]32C)OOC2(CCCCC2)OO4)[C@@H]2CC[C@H]([C@H](C)CCC(=O)O)[C@@]12C`, the GI50 in the assay on SNB-75 is 3.61 µM (inactive); with SF-539, 7.85 µM (inactive); in the assay with SK-MEL-2 it was 13.1 µM (inactive); in the assay with PC-3, 7.24 µM (inactive); in the assay on HCC 2998 it was 12 µM (inactive); with NCI/ADR-RES, 4.88 µM (inactive). Further, the GI50 in the assay on MCF7 is 4.65 µM (inactive); with SK-MEL-5, 10.6 µM (inactive); in the assay with HOP-92, 1.98 µM (inactive); with Malme-3M, 16.4 µM (inactive); with HOP-62 it was 2.45 µM (inactive); with SK-OV-3, 13.7 µM (inactive). The GI50 with BT-549 was 4.24 µM (inactive); in the assay on CCRF-CEM, 2.33 µM (inactive); in the assay on OVCAR-5 it was 10.7 µM (inactive); with NCI-H460 it was 4.43 µM (inactive); in the assay on HCT-15, 4.39 µM; in the assay on UO-31, 3.28 µM (inactive). Besides, the GI50 with OVCAR-3 was 13.9 µM (inactive).
Turning to `CCN(CC)CC1CCCCN1CC(=O)N1c2ccccc2NC(=O)CC1C` (centres undefined), the GI50 in the assay on SF-539, in the assay on SK-MEL-2, in the assay with PC-3, with HCC 2998, in the assay on NCI/ADR-RES and in the assay with MCF7 was > 100 µM (inactive) in each case. In addition, the GI50 in the assay on SK-MEL-5, in the assay on HOP-92, with Malme-3M, in the assay on HOP-62, with SK-OV-3 and with BT-549 was > 100 µM (inactive) in each case. In addition, the GI50 was > 100 µM (inactive) in the assay on CCRF-CEM; > 100 µM (inactive) in the assay on OVCAR-5; > 100 µM (inactive) with NCI-H460; > 100 µM with HCT-15; > 100 µM (inactive) in the assay on UO-31; > 100 µM (inactive) in the assay with OVCAR-3.
On to `C=C1CCCC(C)(C)[C@H]1C/C=C1\CCOC1=O`, for which the GI50 in the assay on SF-539 was 17.2 µM (inactive); in the assay with SK-MEL-2, 63.7 µM (inactive); in the assay with PC-3 it was 16.9 µM (inactive); in the assay with HCC 2998, 23.9 µM (inactive); in the assay on NCI/ADR-RES, 10.5 µM (inactive); in the assay with MCF7, 12.8 µM (inactive). Besides, the GI50 with SK-MEL-5 is 10.2 µM (inactive); in the assay on HOP-92, 12.1 µM (inactive); in the assay with Malme-3M, 13.5 µM (inactive); in the assay with HOP-62 it was 17.6 µM (inactive); in the assay with SK-OV-3, 10.5 µM (inactive); with BT-549 it was 14 µM (inactive). In addition, the GI50 in the assay with CCRF-CEM was 21.6 µM (inactive); in the assay with NCI-H460, 11.8 µM (inactive); in the assay with HCT-15, 14.5 µM; with UACC-62, 29.4 µM (inactive); in the assay with UO-31, 16.1 µM (inactive); in the assay on OVCAR-3 it was 15 µM (inactive).
